Laboratory results from paper PMC5667506, “Potent and selective inhibition of SH3 domains with dirhodium metalloinhibitors” (Chemical Science, 2015).

Tests used:
[1] = target: T1, Full-length Lyn kinase (GST-tagged Lyn B) (Homo sapiens, UniProt P07948); test: Lyn kinase activation assay (ADP-Glo Kinase Assay); type: biochemical; conditions: 74 nM Lyn, 5 min
T1 construct: Full-length Lyn kinase (74 nM) was treated with substrate peptide and ATP; purchased Promega
Description: We examined phosphorylation of a peptide substrate at low enzyme concentration (0.074 μM) and short reaction time (t = 5 min) to minimize the alternative autophosphorylation activation pathway (Fig. 6). Kinase activation with traditional ligands has typically required high ligand concentrations (∼1 mM) to overcome the intramolecular nature of the SH3–kinase domain interaction.
Fig. 6 Activation of Lyn kinase activity by a metallopeptide, S2E^Rh, and the parent peptide, S2E. […] Full-length Lyn kinase (74 nM) was treated with substrate peptide and ATP. Kinase activity was measured after 5 min in an adaptation of reported methods.[5] See ESI ^† for details.
All chemical reagents were purchased from Sigma-Aldrich and were used without further purification. […]
Kinase assay. ATP turnover by Lyn was measured using the ADP-GloTM Kinase Assay (Promega) according to the manufacturer’s protocol. Briefly, final concentrations of 72 μM ATP, 74 nM Lyn (GST-tagged Lyn B), and 240 μM substrate peptide (all from Promega) were combined in buffer (40 mM Tris, 50 μM dithiothreitol, 2 mM MnCl2 and 0.1 mg/mL BSA at pH 7.5) with a solution of the desired treatment (or control) in the same buffer for a final reaction volume of 5 µL. The kinase reaction was allowed to proceed at room temp. for 5 min from addition of ATP before the start of the ADP-Glo protocol halted the reaction. Chemiluminescence data were acquired on a Tecan Infinite M1000 microplate reader in white 384 well low volume plates (Corning Costar 3674) with an integration time of 250 ms per well. […]

Hck SH3 domain = target: T2, Hck SH3 domain (Homo sapiens, UniProt P08631); test: ITC binding to Hck SH3 domain (two-sets-of-sites fit); conditions: high affinity specific site
T2 construct: The hck SH3 domain was amplified by PCR using Phusion DNA polymerase; GST (N, cleaved yes); made in house; host or cells: E. coli BL21 (DE3)
T2 sequence (P08631 77-139): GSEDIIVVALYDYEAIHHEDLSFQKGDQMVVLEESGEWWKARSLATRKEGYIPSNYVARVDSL
Description: All chemical reagents were purchased from Sigma-Aldrich and were used without further purification.
Peptide synthesis. All peptides were synthesized manually or with an AAPPTEC APEX 396 Automated Multipeptide Synthesizer using standard solid-phase Fmoc protocols.1,2 Peptides were prepared as C-terminal amides using Rink amide MBHA resin (AAPPTEC) and were acetylated at the N-terminus prior to cleavage from the resin. Peptides and metallopeptides were purified by reverse-phase HPLC.
HPLC separation. Reverse-phase HPLC was performed on a Shimadzu CBM-20A instrument with Phenomenex Jupiter 4μ Proteo 90A (250 × 15 mm preparative) and Phenomenex Jupiter 4μ Proteo 90A (250 × 4.6 mm analytical) columns. The columns were eluted with a gradient of acetonitrile in water (10-90%) (flow rates of 8 mL/min and 1 mL/min for preparative and analytical columns, respectively). Trifluoroacetic acid (0.1%) was added to all eluents. […]
ITC analysis. ITC experiments were carried out on a VP-ITC instrument (MicroCal) at 25 °C. Titrations of 275 μM peptide into 18 μM SH3 domain proteins were used for all titrations, except for the titration of S2ERh into Lyn SH3 domain, where the lower concentrations of 69 µM S2ERh peptide and 4 µM Lyn SH3 were used to attain a c-value for the titration within the accepted limts for ITC experiments ([…]).3
Heats of dilutions were measured independently for each experiment by titrating 275 μM peptide into buffer (20 mM phosphate buffer, pH 7, 150 mM NaCl, 1 mM EDTA). All experimental data were fitted using a one set of sites binding model in Origin software (MicroCal) except for the data with Hck SH3 domain. With Hck only, the non-peptide specific binding of dirhodium tetraacetate to Hck SH3 domain could not be treated as negligible, despite the very weak interaction (88 µM), due to the larger enthalpy contribution observed for non-specific binding to this SH3 domain, so the titrations of peptide into Hck were fitted using a 2 set of sites binding model where the stoichiometry for the second set of sites was fixed at 2.0. […]
Mass spectrometry. ESI-MS was performed on a Bruker Daltonics micrOTOF instrument.
Known compounds and proteins. Several metallopeptides (S2ERh, L3ERh, R5ERh, and 13DRh) were reported previously and were prepared by known protocols;4 alkyne-diazo 3,5 3-azido-7-hydroxycoumarin6 were synthesized following reported procedures; fyn, yes, lck, and src SH3 protein domains were prepared following published procedures.5 Abl, hck, and lyn SH3 domain plasmids were adapted from the previously reported genes;7 the gene templates were obtained from Addgene, ID […]
Table S1. Table of the thermodynamic parameters for binding of metallopeptides to SH3 domains, determined by isothermal […]
Protein Peptide Stoichiometry Kd ΔH -TΔS ΔG
(nM) (kcal mol-1) (kcal mol-1) (kcal mol-1)
* The binding isotherms for metallopeptide interactions with Hck were fitted using a two -sets-of-sites model with the stoichiometry for the second set of sites fixed to 2.0. The second set of binding sites was used to account for the weak, but not negligable, binding of the peptide to another surface of Hck SH3 domain, presumably through non-specific interactions of the dirhodium tetraacetate group. The thermodynamics for the high affinity specific binding site interaction are provided in this

T1 sequence (P07948 1-491 isoform P07948-2): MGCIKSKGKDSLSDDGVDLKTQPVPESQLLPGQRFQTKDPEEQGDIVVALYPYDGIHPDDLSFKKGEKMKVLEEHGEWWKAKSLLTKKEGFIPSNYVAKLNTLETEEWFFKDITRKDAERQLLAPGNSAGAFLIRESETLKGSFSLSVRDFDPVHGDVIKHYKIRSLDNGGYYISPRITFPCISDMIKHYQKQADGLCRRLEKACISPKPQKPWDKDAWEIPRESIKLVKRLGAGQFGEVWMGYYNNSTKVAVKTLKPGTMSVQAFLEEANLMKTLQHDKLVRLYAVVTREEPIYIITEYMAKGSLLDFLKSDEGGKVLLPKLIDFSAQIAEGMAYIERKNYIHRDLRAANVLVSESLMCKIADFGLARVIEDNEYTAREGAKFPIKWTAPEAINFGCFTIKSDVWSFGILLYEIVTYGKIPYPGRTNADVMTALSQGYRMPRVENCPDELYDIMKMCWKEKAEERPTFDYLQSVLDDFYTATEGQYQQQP

Substance: AcVELARRPLPPLPN-NH2 [S2E^Rh]
- concentration above which slight activation is seen [1]: above 100 μM
- concentration at which complete activation response was achieved [1]: 630 nM
- concentration giving strong Lyn activation [1]: 200 nM
- -TΔS (Hck SH3 domain; 25 °C): 6.9 kcal/mol
- ΔG (Hck SH3 domain; 25 °C): -10.4 kcal/mol
- ΔH (Hck SH3 domain; 25 °C): -17.2 kcal/mol
- Stoichiometry (Hck SH3 domain): 0.95

Substance: AcVELARRPLPPLPN-NH2 (Ac-VELARRPLPPLPN-NH2; also: Glu2 side-chain carboxylate bound to Rh2(OAc)3) [S2E^Rh, rhodium(II) metallopeptide made from S2E peptide (Ac…-NH2) and Rh2(tfa)(OAc)3]
- Kd (Hck SH3 domain; 25 °C): 26 nM
